Tests used:
[1] = test system: fruit blotch in watermelons; assay: whole plant or invertebrate; conditions: read-out: efficacy against fruit blotch in watermelons
[2] = test system: pathogenic bacteria causing bacterial wilt in cassava; assay: organism not typed; assay type: cell-based; conditions: read-out: inhibitory rate
[3] = test system: pathogenic bacteria causing stem rot in sweet potatoes; assay: In vitro bactericidal activity, stem rot in sweet potatoes; assay type: cell-based, dikia; conditions: read-out: inhibitory rate; for inhibition at 1 ppm: dosage 1 ppm; for inhibition at 5 ppm: dosage 5 ppm
[4] = test system: pathogenic bacteria causing bacterial angular leaf spot in cucumbers; assay: In vitro bactericidal activity, bacterial angular leaf spot in cucumbers; assay type: cell-based, pseudomonas; conditions: read-out: inhibitory rate; for inhibition at 1 ppm: dosage 1 ppm; for inhibition at 5 ppm: dosage 5 ppm
[5] = test system: pathogenic bacteria causing black shank in potatoes; assay: In vitro bactericidal activity, black shank in potatoes; assay type: cell-based; conditions: read-out: inhibitory rate; for inhibition at 1 ppm: dosage 1 ppm; for inhibition at 5 ppm: dosage 5 ppm
[6] = test system: pathogenic bacteria causing fruit blotch in watermelons; assay: In vitro bactericidal activity, fruit blotch in watermelons; assay type: cell-based, acidovorax; conditions: read-out: inhibitory rate; for inhibition at 1 ppm: dosage 1 ppm; for inhibition at 5 ppm: dosage 5 ppm
[7] = test system: cucumber seedlings; assay: Safety for plant growth after application; assay type: in vivo; conditions: dosage 200 ppm
Summary of the method: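 Safety to the crop is assessed on cucumber seedlings in indoor pots by tracking how treatment alters leaf area, chlorophyll level and height growth rate.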

[8] = test system: black shank in potatoes; assay: Living crops in vivo protective activity, potatoes (root irrigation); conditions: Solanum tuberosum, read-out: efficacy against black shank in potatoes; for pest or weed control at 5 ppm: dosage 5 ppm; for pest or weed control at 10 ppm: dosage 10 ppm
Protocol: Root irrigation was carried out on the potatoes for tests according to the designed concentration of the agents. The dosage for each plant was 200 mL and was kept consistent (also for the control). The black shank bacteria were inoculated on the second day after the application. The results were investigated according to the disease condition.

[9] = test system: bacterial wilt in tobacco; assay: whole plant or invertebrate; conditions: Nicotiana tabacum, read-out: efficacy against bacterial wilt in tobacco
[10] = test system: pathogenic bacteria causing black rot in Chinese cabbages; assay: In vitro bactericidal activity, black rot in Chinese cabbages; assay type: cell-based, xanthomonas; conditions: Xanthomonas, read-out: inhibitory rate; for inhibition at 1 ppm: dosage 1 ppm; for inhibition at 5 ppm: dosage 5 ppm
[11] = test system: indoor potted cucumber seedlings; assay: Effect of improving growth and development of crops; assay type: in vivo; design: Rate of growth rate increase (%): concentration or dose not given beside the values; conditions: versus blank control; for Rate of chlorophyll content increase (%) / Rate of leaf area increase (%): 14 days after application; for Rate of growth rate increase (%): plant height 14 days after application; for Rate of leaf area increase (%): second leaf
Summary of the method: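 Readouts: rate of increase in height growth, leaf area and SPAD chlorophyll content. Measurements were made before compound application and again 14 days afterwards, with leaf area computed from second-leaf dimensions.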

[12] = test system: pathogenic bacteria causing bacterial blight in rice; assay: whole plant or invertebrate; assay type: cell-based, xanthomonas; conditions: read-out: inhibitory rate
[13] = test system: stem rot in sweet potatoes; assay: whole plant or invertebrate; conditions: read-out: efficacy against stem rot in sweet potatoes
[14] = test system: pathogenic bacteria causing fire blight in pears; assay: In vitro bactericidal activity, fire blight in pears; assay type: cell-based, erwinia; conditions: Erwinia, read-out: inhibitory rate; for inhibition at 1 ppm: dosage 1 ppm; for inhibition at 5 ppm: dosage 5 ppm
[15] = test system: pathogenic bacteria causing bacterial wilt in tobacco; assay: whole plant or invertebrate; assay type: cell-based, ralstonia; conditions: read-out: inhibitory rate
[16] = test system: bacterial blight in rice; assay: whole plant or invertebrate; conditions: Oryza sativa, read-out: efficacy against bacterial blight in rice
[17] = test system: soft rot in Chinese cabbages; assay: whole plant or invertebrate; conditions: 48 h, read-out: efficacy against soft rot in Chinese cabbages

SMILES | pest or weed control at 5 ppm [1] | pest or weed control at 10 ppm [1] | inhibition at 1 ppm [2] | inhibition at 5 ppm [2] | inhibition at 1 ppm [3] | inhibition at 5 ppm [3] | inhibition at 1 ppm [4] | inhibition at 5 ppm [4] | inhibition at 1 ppm [5] | inhibition at 5 ppm [5] | inhibition at 1 ppm [6] | inhibition at 5 ppm [6] | safety for plant growth (discoloration, necrosis, wilt, malformation) [7] | pest or weed control at 5 ppm [8] | pest or weed control at 10 ppm [8] | pest or weed control at 5 ppm [9] | pest or weed control at 10 ppm [9] | inhibition at 1 ppm [10] | inhibition at 5 ppm [10] | Rate of chlorophyll content increase (%) [11] | also measured
O=C(OCCCO)c1cn(C2CC2)c2cc(OCC(F)(F)F)c(F)cc2c1=O [Compound 329] | ≥ 90% | ≥ 90% | ≥ 90% | ≥ 90% | ≥ 90% | ≥ 90% | ≥ 90% | ≥ 90% | ≥ 90% | ≥ 90% | ≥ 90% | ≥ 90% | safe for plant growth | ≥ 90% | ≥ 90% | ≥ 90% | ≥ 90% | ≥ 90% | ≥ 90% | 17% | Rate of growth rate increase (%) [11]: 13%; Rate of leaf area increase (%) [11]: 17%; inhibition at 1 ppm [12]: ≥ 90%; inhibition at 5 ppm [12]: ≥ 90%; pest or weed control at 5 ppm [13]: ≥ 90%; pest or weed control at 10 ppm [13]: ≥ 90%; inhibition at 1 ppm [14]: ≥ 90%; inhibition at 5 ppm [14]: ≥ 90%; inhibition at 1 ppm [15]: ≥ 90%; inhibition at 5 ppm [15]: ≥ 90%; pest or weed control at 5 ppm [16]: ≥ 90%; pest or weed control at 10 ppm [16]: ≥ 90%; pest or weed control at 5 ppm [17]: ≥ 90%; pest or weed control at 10 ppm [17]: ≥ 90%
CCOCCOC(=O)c1cn(C2CC2)c2cc(OCC(F)(F)F)c(F)cc2c1=O [Compound 335] | ≥ 90% | ≥ 90% | ≥ 90% | ≥ 90% | ≥ 90% | ≥ 90% | ≥ 90% | ≥ 90% | ≥ 90% | ≥ 90% | ≥ 90% | ≥ 90% | safe for plant growth | ≥ 90% | ≥ 90% | ≥ 90% | ≥ 90% | ≥ 90% | ≥ 90% | 16% | Rate of growth rate increase (%) [11]: 12%; Rate of leaf area increase (%) [11]: 16%; inhibition at 1 ppm [12]: ≥ 90%; inhibition at 5 ppm [12]: ≥ 90%; pest or weed control at 5 ppm [13]: ≥ 90%; pest or weed control at 10 ppm [13]: ≥ 90%; inhibition at 1 ppm [14]: ≥ 90%; inhibition at 5 ppm [14]: ≥ 90%; inhibition at 1 ppm [15]: ≥ 90%; inhibition at 5 ppm [15]: ≥ 90%; pest or weed control at 5 ppm [16]: ≥ 90%; pest or weed control at 10 ppm [16]: ≥ 90%; pest or weed control at 5 ppm [17]: ≥ 90%; pest or weed control at 10 ppm [17]: ≥ 90%
CCOc1ccc2c(=O)c(C(=O)OCCOC)cn(C3CC3)c2c1 [Compound 342] | ≥ 90% | ≥ 90% | ≥ 90% | ≥ 90% | ≥ 90% | ≥ 90% | ≥ 90% | ≥ 90% | ≥ 90% | ≥ 90% | ≥ 90% | ≥ 90% | safe for plant growth | ≥ 90% | ≥ 90% | ≥ 90% | ≥ 90% | ≥ 90% | ≥ 90% | 9% | Rate of growth rate increase (%) [11]: 9%; Rate of leaf area increase (%) [11]: 11%; inhibition at 1 ppm [12]: ≥ 90%; inhibition at 5 ppm [12]: ≥ 90%; pest or weed control at 5 ppm [13]: ≥ 90%; pest or weed control at 10 ppm [13]: ≥ 90%; inhibition at 1 ppm [14]: ≥ 90%; inhibition at 5 ppm [14]: ≥ 90%; inhibition at 1 ppm [15]: ≥ 90%; inhibition at 5 ppm [15]: ≥ 90%; pest or weed control at 5 ppm [16]: ≥ 90%; pest or weed control at 10 ppm [16]: ≥ 90%; pest or weed control at 5 ppm [17]: ≥ 90%; pest or weed control at 10 ppm [17]: ≥ 90%
COCCOC(=O)c1cn(C2CC2)c2cc(OCC(F)(F)F)ccc2c1=O [Compound 364] | ≥ 90% | ≥ 90% | ≥ 80% | ≥ 90% | ≥ 80% | ≥ 90% | ≥ 80% | ≥ 90% | ≥ 80% | ≥ 90% | ≥ 80% | ≥ 90% | safe for plant growth | ≥ 80% | ≥ 90% | ≥ 90% | ≥ 90% | ≥ 80% | ≥ 90% | 12% | Rate of growth rate increase (%) [11]: 7%; Rate of leaf area increase (%) [11]: 9%; inhibition at 1 ppm [12]: ≥ 80%; inhibition at 5 ppm [12]: ≥ 90%; pest or weed control at 5 ppm [13]: ≥ 90%; pest or weed control at 10 ppm [13]: ≥ 90%; inhibition at 1 ppm [14]: ≥ 80%; inhibition at 5 ppm [14]: ≥ 90%; inhibition at 1 ppm [15]: ≥ 80%; inhibition at 5 ppm [15]: ≥ 90%; pest or weed control at 5 ppm [16]: ≥ 80%; pest or weed control at 10 ppm [16]: ≥ 90%; pest or weed control at 5 ppm [17]: ≥ 80%; pest or weed control at 10 ppm [17]: ≥ 90%
CCSc1cc2c(cc1F)c(=O)c(C(=O)OCCO)cn2C1CC1 [Compound 372] | ≥ 90% | ≥ 90% | ≥ 90% | ≥ 90% | ≥ 90% | ≥ 90% | ≥ 90% | ≥ 90% | ≥ 90% | ≥ 90% | ≥ 90% | ≥ 90% | safe for plant growth | ≥ 90% | ≥ 90% | ≥ 90% | ≥ 90% | ≥ 90% | ≥ 90% | 11% | Rate of growth rate increase (%) [11]: 8%; Rate of leaf area increase (%) [11]: 10%; inhibition at 1 ppm [12]: ≥ 90%; inhibition at 5 ppm [12]: ≥ 90%; pest or weed control at 5 ppm [13]: ≥ 90%; pest or weed control at 10 ppm [13]: ≥ 90%; inhibition at 1 ppm [14]: ≥ 90%; inhibition at 5 ppm [14]: ≥ 90%; inhibition at 1 ppm [15]: ≥ 90%; inhibition at 5 ppm [15]: ≥ 90%; pest or weed control at 5 ppm [16]: ≥ 90%; pest or weed control at 10 ppm [16]: ≥ 90%; pest or weed control at 5 ppm [17]: ≥ 90%; pest or weed control at 10 ppm [17]: ≥ 90%
CCSc1cc2c(cc1F)c(=O)c(C(=O)OCCOC)cn2C1CC1 [Compound 382] | ≥ 90% | ≥ 90% | ≥ 90% | ≥ 90% | ≥ 90% | ≥ 90% | ≥ 90% | ≥ 90% | ≥ 90% | ≥ 90% | ≥ 90% | ≥ 90% | safe for plant growth | ≥ 90% | ≥ 90% | ≥ 90% | ≥ 90% | ≥ 90% | ≥ 90% | 13% | Rate of growth rate increase (%) [11]: 10%; Rate of leaf area increase (%) [11]: 10%; inhibition at 1 ppm [12]: ≥ 90%; inhibition at 5 ppm [12]: ≥ 90%; pest or weed control at 5 ppm [13]: ≥ 90%; pest or weed control at 10 ppm [13]: ≥ 90%; inhibition at 1 ppm [14]: ≥ 90%; inhibition at 5 ppm [14]: ≥ 90%; inhibition at 1 ppm [15]: ≥ 90%; inhibition at 5 ppm [15]: ≥ 90%; pest or weed control at 5 ppm [16]: ≥ 90%; pest or weed control at 10 ppm [16]: ≥ 90%; pest or weed control at 5 ppm [17]: ≥ 90%; pest or weed control at 10 ppm [17]: ≥ 90%
